In this test the target is Axl kinase (Homo sapiens (Human), UniProt P30530). Put plainly: Axl kinase assay (AlphaScreen). In kind it is biochemical. As to conditions: activity level class. For orientation: Bead proximity is the source of the signal in Alpha formats.

In general, IC50 refers to the concentration that gives 50% inhibition.

A value given as a limit tells only on which side of the number the result lay.

Axl kinase, sequence (P30530 26-894): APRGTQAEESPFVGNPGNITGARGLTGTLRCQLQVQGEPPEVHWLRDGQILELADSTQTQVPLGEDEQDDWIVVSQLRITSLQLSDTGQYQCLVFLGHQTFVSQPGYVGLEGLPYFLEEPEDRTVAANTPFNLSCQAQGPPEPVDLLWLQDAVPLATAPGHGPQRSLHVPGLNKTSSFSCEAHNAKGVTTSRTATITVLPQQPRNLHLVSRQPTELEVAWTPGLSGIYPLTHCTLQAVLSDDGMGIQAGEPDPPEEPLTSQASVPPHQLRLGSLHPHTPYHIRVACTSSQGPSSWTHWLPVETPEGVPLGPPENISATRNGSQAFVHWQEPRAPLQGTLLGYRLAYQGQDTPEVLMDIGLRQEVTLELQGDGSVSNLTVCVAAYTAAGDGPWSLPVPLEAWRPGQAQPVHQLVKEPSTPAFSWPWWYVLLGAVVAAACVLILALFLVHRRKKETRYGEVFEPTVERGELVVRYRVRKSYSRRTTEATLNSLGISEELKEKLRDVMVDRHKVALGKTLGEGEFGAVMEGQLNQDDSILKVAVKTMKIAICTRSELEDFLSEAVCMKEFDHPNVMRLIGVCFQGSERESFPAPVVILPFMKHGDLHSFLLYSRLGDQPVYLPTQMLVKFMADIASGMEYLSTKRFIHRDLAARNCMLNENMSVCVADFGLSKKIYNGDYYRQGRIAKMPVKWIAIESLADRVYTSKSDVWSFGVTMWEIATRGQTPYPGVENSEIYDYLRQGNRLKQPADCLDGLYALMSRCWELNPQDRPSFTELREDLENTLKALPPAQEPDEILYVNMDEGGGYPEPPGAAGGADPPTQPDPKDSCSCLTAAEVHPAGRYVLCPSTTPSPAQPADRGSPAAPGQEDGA

For `COCCOc1nc(Nc2ccc(CN3CCC(C)CC3)cc2)nc2[nH]cc(-c3ccc(OCc4ncccn4)cc3F)c12` [Compound 34, 5-(2-fluoro-4-(pyrimidin-2-ylmethoxy)phenyl)-4-(2-methoxyethoxy)-N-(4-((4-methylpiperidin-1-yl)methyl)phenyl)-7H-pyrrolo[2,3-d]pyrimidin-2-amine], the IC50 is less than 30 nM.
Compound `COc1nc(Nc2ccc(CN3CCC(C)CC3)cc2)nc2[nH]cc(-c3ccc(O)cc3)c12` [Compound 28, 4-(4-methoxy-2-((4-((4-methylpiperidin-1-yl)methyl)phenyl)amino)-7H-pyrrolo[2,3-d]pyrimidin-5-yl)phenol] yielded a concentration for half-maximal inhibition (IC50) of less than 30 nM.
With `COc1nc(Nc2ccc(CN3CCC(C)CC3)cc2)nc2[nH]cc(-c3ccc(S(=O)(=O)N(C)C)cc3)c12` [Compound 5, 4-(4-methoxy-2-((4-((4-methylpiperidin-1-yl)methyl)phenyl)amino)-7H-pyrrolo[2,3-d]pyrimidin-5-yl)-N,N-dimethylbenzene-sulfonamide], the IC50 was less than 30 nM.
Turning to `COCCOc1nc(Nc2ccc(CN3CCN(C)CC3)cc2)nc2[nH]cc(-c3ccc4nc(C)oc4c3)c12` [Compound 64, 4-(2-methoxyethoxy)-5-(2-methylbenzo[d]oxazol-6-yl)-N-(4-((4-methylpiperazin-1-yl)methyl)phenyl)-7H-pyrrolo[2,3-d] pyrimidin-2-amine], the IC50 is less than 30 nM.
Consider `CCN1CCN(Cc2ccc(Nc3nc(OCCOC)c4c(-c5ccc(OCc6ccccn6)cc5F)c[nH]c4n3)cc2)CC1` [Compound 19, N-(4-((4-ethylpiperazin-1-yl)methyl)phenyl)-5-(2-fluoro-4-(pyridin-2-ylmethoxy)phenyl)-4-(2-methoxyethoxy)-7H-pyrrolo[2,3-d]pyrimidin-2-amine], for which the IC50 is less than 30 nM.
With `COCC(C)Oc1nc(Nc2ccc(CN3CCN(C)CC3)cc2)nc2[nH]cc(-c3ccc(F)cc3F)c12` (stereo not shown) [Compound 63, 5-(2,4-difluorophenyl)-4-((1-methoxypropan-2-yl)oxy)-N-(4-((4-methylpiperazin-1-yl)methyl)phenyl)-7H-pyrrolo[2,3-d]pyrimidin-2-amine] the figure was less than 30 nM.
In turn, `COCCOc1nc(Nc2ccc(CN3CCN(C)CC3)cc2)nc2[nH]cc(-c3ccc(F)cc3F)c12` [Compound 53, 5-(2,4-difluorophenyl)-4-(2-methoxyethoxy)-N-(4-((4-methylpiperazin-1-yl)methyl)phenyl)-7H-pyrrolo[2,3-d] pyrimidin-2-amine] displayed an IC50 of less than 30 nM.
With `COCCOc1nc(Nc2ccc(CN3CCN(C)CC3)cc2)nc2[nH]cc(-c3ccc(NS(=O)(=O)c4cc(F)ccc4F)cc3)c12` [Compound 1, 2,5-difluoro-N-(4-(4-(2-methoxyethoxy)-2-((4-((4-methylpiperazin-1-yl)methyl)phenyl)amino)-7H-pyrrolo[2,3-d]pyrimidin-5-yl)phenyl)benzene-sulfonamide], the IC50 is less than 30 nM.
As to `COCCOc1nc(Nc2ccc(CN3CCN(C)CC3)cc2)nc2[nH]cc(-c3ccc(OCc4ccc(C)cn4)cc3F)c12` [Compound 105, 5-(2-fluoro-4-((5-methylpyridin-2-yl)methoxy)phenyl)-4-(2-methoxyethoxy)-N-(4-((4-methylpiperazin-1-yl)methyl)phenyl)-7H-pyrrolo[2,3-d]pyrimidin-2-amine], the IC50 was less than 30 nM.
Compound `COCCOc1nc(Nc2ccc(CN3CCN(C)CC3)cc2)nc2[nH]cc(-c3ccc(OCc4ccccn4)cc3F)c12` [Compound 92, 5-(2-fluoro-4-(pyridin-2-ylmethoxy)phenyl)-4-(2-methoxyethoxy)-N-(4-((4-methylpiperazin-1-yl)methyl)phenyl)-7H-pyrrolo[2,3-d]pyrimidin-2-amine] yielded an IC50 of less than 30 nM.
In turn, `COc1nc(Nc2ccc(CN3CCN(C)CC3)cc2)nc2[nH]cc(-c3ccc(F)cc3)c12` [Compound 38, 5-(4-fluorophenyl)-4-methoxy-N-(4-((4-methylpiperazin-1-yl)methyl)phenyl)-7H-pyrrolo[2,3-d]pyrimidin-2-amine] came in with an IC50 of less than 30 nM.
Compound `CN1CCN(Cc2ccc(Nc3nc(NC4CCOCC4)c4c(-c5ccc(F)cc5F)c[nH]c4n3)cc2)CC1` [Compound 75, 5-(2,4-difluorophenyl)-N2-(4-((4-methylpiperazin-1-yl)methyl)phenyl)-N4-(tetrahydro-2H-pyran-4-yl)-7H-pyrrolo[2,3-d]pyrimidine-2,4-diamine] returned an IC50 of less than 30 nM.
On to `CN1CCN(Cc2ccc(Nc3nc(OCC4CCCO4)c4c(-c5ccc(F)c(Cl)c5)c[nH]c4n3)cc2)CC1` (stereo not shown) [Compound 77, 5-(3-chloro-4-fluorophenyl)-N-(4-((4-methylpiperazin-1-yl)methyl)phenyl)-4-((tetrahydrofuran-2-yl)methoxy)-7H-pyrrolo[2,3-d]pyrimidin-2-amine], for which the IC50 was less than 30 nM.
As for `CN1CCN(Cc2ccc(Nc3nc(OCC4CCCO4)c4c(-c5ccc(F)cc5F)c[nH]c4n3)cc2)CC1` (stereo not shown) [Compound 52, 5-(2,4-difluorophenyl)-N-(4-((4-methylpiperazin-1-yl)methyl)phenyl)-4-((tetrahydrofuran-2-yl)methoxy)-7H-pyrrolo[2,3-d] pyrimidin-2-amine], the IC50 is less than 30 nM.
Take `COCCOc1nc(Nc2ccc(CN3CCN(C)CC3)cc2)nc2[nH]cc(-c3ccc(OCc4cc(C)ccn4)cc3F)c12` [Compound 9, 5-(2-fluoro-4-((4-methylpyridin-2-yl)methoxy)phenyl)-4-(2-methoxyethoxy)-N-(4-((4-methylpiperazin-1-yl)methyl)phenyl)-7H-pyrrolo[2,3-d]pyrimidin-2-amine]: the IC50 is less than 30 nM.
With `COCCOc1nc(Nc2ccc(CN3CCN(C)CC3)cc2)nc2[nH]cc(-c3ccc(F)cc3)c12` [Compound 85, 5-(4-fluorophenyl)-4-(2-methoxyethoxy)-N-(4-((4-methylpiperazin-1-yl)methyl)phenyl)-7H-pyrrolo[2,3-d]pyrimidin-2-amine] the figure was less than 30 nM; with `CCN1CCN(Cc2ccc(Nc3nc(OC)c4c(-c5ccc(O)cc5)c[nH]c4n3)cc2)CC1` [Compound 48, 4-(2-((4-((4-ethylpiperazin-1-yl)methyl)phenyl)amino)-4-methoxy-7H-pyrrolo[2,3-d]pyrimidin-5-yl)phenol], less than 30 nM; with `COCCOc1nc(Nc2ccc(CN(C)C)cc2)nc2[nH]cc(-c3ccc(F)cc3F)c12` [Compound 80, 5-(2,4-difluorophenyl)-N-(4-((dimethylamino)methyl)phenyl)-4-(2-methoxyethoxy)-7H-pyrrolo[2,3-d]pyrimidin-2-amine], less than 30 nM.
The compound `CCN1CCN(Cc2ccc(Nc3nc(OCCOC)c4c(-c5ccc(OCc6ncccn6)cc5F)c[nH]c4n3)cc2)CC1` [Compound 39, N-(4-((4-ethylpiperazin-1-yl)methyl)phenyl)-5-(2-fluoro-4-(pyrimidin-2-ylmethoxy)phenyl)-4-(2-methoxyethoxy)-7H-pyrrolo[2,3-d]pyrimidin-2-amine] returned an IC50 of less than 30 nM.
`CC(C)Oc1nc(Nc2ccc(CN3CCN(C)CC3)cc2)nc2[nH]cc(-c3ccc(F)cc3F)c12` [Compound 69, 5-(2,4-difluorophenyl)-4-isopropoxy-N-(4-((4-methylpiperazin-1-yl)methyl)phenyl)-7H-pyrrolo[2,3-d]pyrimidin-2-amine] came in with an IC50 of less than 30 nM.
`CCN1CCN(Cc2ccc(Nc3nc(OC)c4c(-c5ccc(F)cc5F)c[nH]c4n3)cc2)CC1` [Compound 45, 5-(2,4-difluorophenyl)-N-(4-((4-ethylpiperazin-1-yl)methyl)phenyl)-4-methoxy-7H-pyrrolo [2,3-d]pyrimidin-2-amine] yielded an IC50 of less than 30 nM.
`COCCOc1nc(Nc2ccc(CN3CCN(C)CC3)cc2)nc2[nH]cc(-c3ccc(OCn4ccccc4=O)cc3F)c12` [Compound 68, 1-((3-fluoro-4-(4-(2-methoxyethoxy)-2-((4-((4-methylpiperazin-1-yl)methyl)phenyl)amino)-7H-pyrrolo[2,3-d]pyrimidin-5-yl)phenoxy)methyl) pyridin-2(1H)-one]: the IC50 was less than 30 nM.
As to `CN1CCN(Cc2ccc(Nc3nc(OC4CCCC4)c4c(-c5ccc(F)cc5F)c[nH]c4n3)cc2)CC1` [Compound 55, 4-(cyclopentyloxy)-5-(2,4-difluorophenyl)-N-(4-((4-methylpiperazin-1-yl)methyl)phenyl)-7H-pyrrolo[2,3-d]pyrimidin-2-amine], the IC50 was less than 30 nM.
Turning to `COc1nc(Nc2ccc(CN3CCC(C)CC3)cc2)nc2[nH]cc(-c3ccc(NS(C)(=O)=O)cc3)c12` [Compound 4, N-(4-(4-methoxy-2-((4-((4-methylpiperidin-1-yl)methyl)phenyl)amino)-7H-pyrrolo[2,3-d]pyrimidin-5-yl)phenyl)methane-sulfonamide], the IC50 was less than 30 nM.
Next, `COCCOc1nc(Nc2ccc(CN3CCN(C)CC3)cc2)nc2[nH]cc(-c3ccc(F)c(Cl)c3)c12` [Compound 50, 5-(3-chloro-4-fluorophenyl)-4-(2-methoxyethoxy)-N-(4-((4-methylpiperazin-1-yl)methyl)phenyl)-7H-pyrrolo[2,3-d]pyrimidin-2-amine]: less than 30 nM.
Compound `COCCOc1nc(Nc2ccc(CN3CCN(C)CC3)cc2)nc2[nH]cc(-c3ccc(OCc4cccc(F)n4)cc3F)c12` [Compound 104, 5-(2-fluoro-4-((6-fluoropyridin-2-yl)methoxy)phenyl)-4-(2-methoxyethoxy)-N-(4-((4-methylpiperazin-1-yl)methyl)phenyl)-7H-pyrrolo[2,3-d]pyrimidin-2-amine] yielded an IC50 of less than 30 nM.
As for `CCN1CCN(Cc2ccc(Nc3nc(OCCOC)c4c(-c5ccc(OCc6ncccc6C)cc5F)c[nH]c4n3)cc2)CC1` [Compound 112, N-(4-((4-ethylpiperazin-1-yl)methyl)phenyl)-5-(2-fluoro-4-((3-methylpyridin-2-yl)methoxy)phenyl)-4-(2-methoxyethoxy)-7H-pyrrolo[2,3-d]pyrimidin-2-amine], the IC50 was less than 30 nM.
Compound `COCCOc1nc(Nc2ccc(CN3CCN(C)CC3)cc2)nc2[nH]cc(-c3ccc(OCc4ncccc4C)cc3F)c12` [Compound 11, 5-(2-fluoro-4-((3-methylpyridin-2-yl)methoxy)phenyl)-4-(2-methoxyethoxy)-N-(4-((4-methylpiperazin-1-yl)methyl)phenyl)-7H-pyrrolo[2,3-d]pyrimidin-2-amine] showed an IC50 of less than 30 nM.

The record behind these values is patent publication US11407757B2, “Heterocycle compounds as Tyro3, Axl and MerTK (TAM) family of receptor tyrosine kinase inhibitors” (Development Center for Biotechnology, priority 2017, dated 2022).
